# Test results as given in ChEMBL document CHEMBL3877278, “Antiproliferative activity of amino substituted benzo[b]thieno[2,3-b]pyrido[1,2-a]benzimidazoles explored by 2D and 3D cell culture system” (Eur J Med Chem, 2017).
# pIC50: −log10 of the molar value.
# Columns and labels:
# [1] = Lipophilicity, log D of the compound at pH 7.4 by HPLC method; assay type: physicochemical; settings: buffer
# [2] = Antiproliferative activity against 3D culture of human MDA-MB-231 cells after 72 hrs MTS assay; assay type: functional, cell-based; settings: MDA-MB-231, 72 h
# [3] = Antiproliferative activity against 3D culture of human SK-BR-3 cells after 72 hrs MTS assay; assay type: functional, cell-based; settings: SK-BR-3, 72 h
# [4] = Antiproliferative activity against 3D culture of human T47D cells after 72 hrs MTS assay; assay type: functional, cell-based
# [5] = Lipophilicity, log D of the compound at pH 2.7 by HPLC method; assay type: physicochemical; settings: buffer
# [6] = Antiproliferative activity against 2D culture of human SK-BR-3 cells after 72 hrs MTS assay; assay type: functional, cell-based; settings: SK-BR-3, 72 h
# [7] = Antiproliferative activity against 2D culture of human T47D cells after 72 hrs MTS assay; assay type: functional, cell-based
# [8] = Antiproliferative activity against 2D culture of human MDA-MB-231 cells after 72 hrs MTS assay; assay type: functional, cell-based; settings: MDA-MB-231, 72 h
logD ([1]; read-out: logD),logD [5],logD [1],SMILES,pIC50 [2],pIC50 [3],pIC50 [4],pIC50 [6],pIC50 [7],pIC50 [8]
5.11,5.14,–,N#Cc1cc2ccc(F)cc2n2c1nc1ccccc12,< 4.52,< 4.52,< 4.52,< 4.52,< 4.52,4.52
5.85,5.9,–,N#Cc1c(Cl)c2ccccc2n2c1nc1ccccc12,< 4.52,< 4.52,< 4.52,< 4.52,6.00,< 4.52
6.58,6.45,–,CC(C)CNc1ccc2cc(C#N)c3nc4ccccc4n3c2c1,< 4.52,< 4.52,4.72,6.00,5.52,5.30
2.14,0.44,–,CN(C)CCCNc1ccc2cc(C#N)c3nc4ccccc4n3c2c1,4.96,< 4.52,< 4.52,5.40,4.92,5.52
2.91,1.03,–,CN(C)CCCNc1ccc2c(c1)sc1cc(C#N)c3nc4ccccc4n3c12,5.30,4.57,< 4.52,5.40,5.30,5.70
8.5,8.52,–,N#Cc1cc2sc3cc(N4CCCCC4)ccc3c2n2c1nc1ccccc12,< 4.52,< 4.52,< 4.52,< 4.52,< 4.52,< 4.52
7.77,7.76,–,CC(C)CNc1ccc2c(c1)sc1cc(C#N)c3nc4ccccc4n3c12,< 4.52,< 4.52,4.92,5.30,5.70,5.52
7.32,7.38,–,N#Cc1c(Cl)c2sc3ccccc3c2n2c1nc1ccccc12,< 4.52,< 4.52,< 4.52,< 4.52,6.00,< 4.52
2.75,0.84,–,N#Cc1cc2sc3cc(N4CCNCC4)ccc3c2n2c1nc1ccccc12,4.72,4.62,4.59,5.70,5.30,5.40
3.2,4.04,–,N#Cc1c(=O)c2sc3cc(F)ccc3c2n2c1[nH]c1ccccc12,< 4.52,< 4.52,< 4.52,< 4.52,< 4.52,< 4.52
3.2,4.04,–,N#Cc1c(Cl)c2sc3cc(F)ccc3c2n2c1nc1ccccc12,< 4.52,< 4.52,< 4.52,< 4.52,< 4.52,< 4.52
6.05,6.11,–,N#Cc1c(Cl)c2ccc(F)cc2n2c1nc1ccccc12,< 4.52,< 4.52,< 4.52,5.30,5.70,4.96
6.3,6.32,–,N#Cc1cc2sc3cc(F)ccc3c2n2c1nc1ccccc12,< 4.52,< 4.52,< 4.52,< 4.52,6.00,< 4.52
6.99,4.67,–,CC(C)CNc1c(C#N)c2nc3ccccc3n2c2c1sc1ccccc12,< 4.52,< 4.52,< 4.52,< 4.52,5.30,5.05

# The next lines start with the compound.
SMILES,logD ([1]; read-out: logD),logD [5],logD [1],pIC50 [2],pIC50 [3],pIC50 [4],pIC50 [6],pIC50 [7],pIC50 [8]
N#Cc1cc2ccc(N3CCCCC3)cc2n2c1nc1ccccc12,7.07,7,–,< 4.52,< 4.52,< 4.52,5.52,< 4.52,5.15
N#Cc1cc2ccc(N3CCNCC3)cc2n2c1nc1ccccc12,2.01,0.27,–,5.30,< 4.52,< 4.52,5.70,4.82,5.52
CC(C)CNc1c(C#N)c2nc3ccccc3n2c2ccccc12,5.52,2.77,–,< 4.52,< 4.52,< 4.52,5.40,< 4.52,< 4.52
CN(C)CCCNc1c(C#N)c2nc3ccccc3n2c2ccccc12,2.26,-0.05,–,5.15,< 4.52,< 4.52,5.40,4.54,5.22
N#Cc1c(N2CCCCC2)c2ccccc2n2c1nc1ccccc12,6.91,6.36,–,5.52,< 4.52,< 4.52,< 4.52,< 4.52,< 4.52
N#Cc1c(N2CCNCC2)c2ccccc2n2c1nc1ccccc12,2.22,0.53,–,5.15,< 4.52,< 4.52,5.05,< 4.52,5.10
N#Cc1c(N2CCNCC2)c2sc3ccccc3c2n2c1nc1ccccc12,3.44,1.08,–,5.30,< 4.52,< 4.52,5.40,5.30,5.30
N#Cc1c(N2CCCCC2)c2sc3cc(N4CCCCC4)ccc3c2n2c1nc1ccccc12,–,–,–,< 4.52,< 4.52,< 4.52,< 4.52,< 4.52,< 4.52
CC(C)CNc1ccc2c(c1)sc1c(NCC(C)C)c(C#N)c3nc4ccccc4n3c12,–,–,–,< 4.52,< 4.52,5.10,< 4.52,5.40,< 4.52
N#Cc1c(N2CCNCC2)c2ccc(N3CCNCC3)cc2n2c1nc1ccccc12,0.87,-0.98,–,5.05,< 4.52,< 4.52,5.15,5.30,5.70
N#Cc1c(=O)c2sc3ccccc3c2n2c1[nH]c1ccccc12,2.95,3.76,–,< 4.52,< 4.52,< 4.52,< 4.52,< 4.52,< 4.52
CC(C)CNc1ccc2c(NCC(C)C)c(C#N)c3nc4ccccc4n3c2c1,–,–,–,< 4.52,< 4.52,4.72,5.30,4.92,< 4.52
N#CC1C(=O)c2ccc(F)cc2-n2c1nc1ccccc12 (stereo not drawn),2.46,3,–,< 4.52,< 4.52,< 4.52,< 4.52,< 4.52,< 4.52
CN(C)CCCNc1c(C#N)c2nc3ccccc3n2c2c1sc1ccccc12,3.44,0.69,–,5.40,5.00,4.64,6.00,5.40,5.52
N#Cc1c(N2CCCCC2)c2ccc(N3CCCCC3)cc2n2c1nc1ccccc12,–,7.51,9.11,< 4.52,< 4.52,< 4.52,< 4.52,< 4.52,< 4.52
N#CC1C(=O)c2ccccc2-n2c1nc1ccccc12 (stereo not drawn),2.09,2.6,–,< 4.52,< 4.52,< 4.52,< 4.52,< 4.52,< 4.52
N#Cc1c(N2CCCCC2)c2sc3ccccc3c2n2c1nc1ccccc12,8.34,7.7,–,< 4.52,< 4.52,< 4.52,< 4.52,5.30,5.22
N#Cc1c(N2CCNCC2)c2sc3cc(N4CCNCC4)ccc3c2n2c1nc1ccccc12,1.89,-0.51,–,4.77,< 4.52,< 4.52,5.10,4.92,5.40
COc1cccc2c1C(=O)c1c(O)c3c(c(O)c1C2=O)C[C@@](O)(C(=O)CO)C[C@@H]3O[C@H]1C[C@H](N)[C@H](O)[C@H](C)O1 [DOXORUBICIN],–,–,–,–,5.89,6.00,–,7.10,–
